Source: publication PMC7708037, “Targeting OGG1 arrests cancer cell proliferation by inducing replication stress” (Nucleic Acids Research, 2020)
Where two headings read alike, the source gives them in different places.

Key:
Experiment in all cases: Resazurin viability, 5 days
Type in all cases: cell-based, human
[1] = tested on: CCRF-CEM; conditions: C, T-cell acute lymphoblastic leukemia
Description: (§1) Cells were seeded in 96- or 384-well plates and incubated for 3 days for combination experiments or 5 days for single-drug exposure experiments. Resazurin (R7017, SigmaAldrich) was added to a final concentration of 0.01 mg/ml resazurin and fluorescence was measured at ex530/em590 after incubation for 2, 4 or 6 h. Curves were fitted using XLfit software (IDBS) or Prism 8.0 (Graphpad Software), and EC50 values were determined.
(§2) Supplementary Table S1: Effect of OGG1 inhibitors on cancer and non-transformed cell lines.
(§3) Cell lines were incubated with a dilution series of the indicated compounds for 5 days, and viability
(§4) assessed with resazurin. EC50-values were calculated based on the resulting dose -response curves.
(§5) The number of independent experiments is indicated for each value.
(§6) C=cancer;N=non- Disease EC50 n= EC50 n= EC50 n=
transformed (µM) (µM) (µM)
A3 C T-cell acute lymphoblastic leukemia 10.0 12 7.9 7 9.8 5 […]
CCRF-CEM C T-cell acute lymphoblastic leukemia 13.0 5 10.5 2 7.9 2 […]

[2] = tested on: A498; conditions: A498, C, Kidney carcinoma
Description: as §1, §2, §3, §4, §5, §6

[3] = tested on: VH10; conditions: VH10, N, Non-transformed fibroblast
Description: as §1, §2, §3, §4, §5, §6

[4] = tested on: M059K; conditions: C, Glioblastoma
Description: as §1, §2, §3, §4, §5, §6

[5] = tested on: H460; conditions: H460, C, Large cell lung carcinoma
Description: as §1, §2, §3, §4, §5, §6

[6] = tested on: MRC5; conditions: MRC5, N, Non-transformed lung fibroblast
Description: as §1, §2, §3, §4, §5, §6

[7] = tested on: HCT116+Chr3; conditions: HCT116+Chr3, C, Colorectal carcinoma with WT Chr3
Description: as §1, §2, §3, §4, §5, §6

[8] = tested on: PL-21; conditions: PL-21, C, Acute myeloid leukemia
Description: as §1, §2, §3, §4, §5, §6

[9] = tested on: HL-60; conditions: HL-60, C, Acute promyelocytic leukemia
Description: as §1, §2, §3, §4, §5, §6

[10] = tested on: HT-29; conditions: HT-29, C, Colorectal adenocarcinoma
Description: as §1, §2, §3, §4, §5, §6

[11] = tested on: SW480; conditions: SW480, C, Colorectal adenocarcinoma
Description: as §1, §2, §3, §4, §5, §6

[12] = tested on: U2OS; conditions: C, Osteosarcoma
Description: as §1, §2, §3, §4, §5, §6

[13] = tested on: Rec1; conditions: Rec1, C, B cell non-Hodgkin's lymphoma
Description: as §1, §2, §3, §4, §5, §6

[14] = tested on: M059J; conditions: C, Glioblastoma
Description: as §1, §2, §3, §4, §5, §6

[15] = tested on: HeLa; conditions: C, Cervix adenomcarcinoma
Description: as §1, §2, §3, §4, §5, §6

[16] = tested on: 786-0; conditions: 786-0, C, Kidney adenocarcinoma
Description: as §1, §2, §3, §4, §5, §6

[17] = tested on: CCD841; conditions: CCD841, N, Non-transformed fibroblast
Description: as §1, §2, §3, §4, §5, §6

[18] = tested on: MV4-11; conditions: MV4-11, C, Acute monocytic leukemia
Description: as §1, §2, §3, §4, §5, §6

[19] = tested on: HCT116; conditions: HCT116, C, Colorectal carcinoma
Description: as §1, §2, §3, §4, §5, §6

[20] = tested on: MOLT4; conditions: MOLT4, C, T-cell acute lymphoblastic leukemia
Description: as §1, §2, §3, §4, §5, §6

[21] = tested on: SaOS2; conditions: SaOS2, C, Osteosarcoma
Description: as §1, §2, §3, §4, §5, §6

[22] = tested on: DU145; conditions: DU145, C, Prostate carcinoma
Description: as §1, §2, §3, §4, §5, §6

[23] = tested on: Daudi; conditions: C, Burkitt's lymphoma
Description: as §1, §2, §3, §4, §5, §6

[24] = tested on: Raji; conditions: C, Burkitt's lymphoma
Description: as §1, §2, §3, §4, §5, §6

[25] = tested on: PC3; conditions: PC3, C, Prostate adenocarcinoma
Description: as §1, §2, §3, §4, §5, §6

[26] = tested on: KG1a; conditions: C, Acute myelogenous leukemia
Description: as §1, §2, §3, §4, §5, §6

[27] = tested on: BJ-Tert
Description: as §1, §2, §3, §4, §5, §6

[28] = tested on: UO31; conditions: UO31, C, Kidney carcinoma
Description: as §1, §2, §3, §4, §5, §6

[29] = tested on: T98G; conditions: C, Glioblastoma
Description: as §1, §2, §3, §4, §5, §6

[30] = tested on: BJ-Ras; conditions: C, RAS-transformed fibroblast
Description: as §1, §2, §3, §4, §5, §6
(§7) transformed (µM) (µM) (µM) […]

[31] = tested on: RFX393; conditions: RFX393, C, Kidney carcinoma
Description: as §1, §2, §3, §4, §5, §6, §7

[32] = tested on: Reh; conditions: C, Acute lymphocytic leukemia (non-T, non-B)
Description: as §1, §2, §3, §4, §5, §6, §7

[33] = tested on: LCL#1; conditions: LCL#1, N, Non-transformed lymphoblastoid cell line
Description: as §1, §2, §3, §4, §5, §6, §7

[34] = tested on: ACHN; conditions: C, Kidney adenocarcinoma
Description: as §1, §2, §3, §4, §5, §6, §7

[35] = tested on: Jurkat; conditions: C, T-cell acute lymphoblastic leukemia
Description: as §1, §2, §3, §4, §5, §6, §7

[36] = tested on: LCL#2; conditions: LCL#2, N, Non-transformed lymphoblastoid cell line
Description: as §1, §2, §3, §4, §5, §6, §7

[37] = Homo sapiens, 120 h, BJ-Tert, N, Tert-Immortalized fibroblast, 5 days, resazurin, read-out: EC50

O=C(Nc1ccc(I)cc1)N1CCC(n2c(=O)[nH]c3c(Br)cccc32)CC1 [TH5487]
EC50 [1]: 13 µM | EC50 [2]: 28.5 µM | EC50 [3]: 32.4 µM | EC50 [4]: 20.3 µM | EC50 [5]: 10.1 µM | EC50 [6]: 42.4 µM | EC50 [7]: 20.6 µM | EC50 [8]: 20.6 µM | EC50 [9]: 15.9 µM | EC50 [10]: 24.5 µM | EC50 [11]: 33.3 µM | EC50 [12]: 19.5 µM | EC50 [13]: 13.7 µM | EC50 [14]: 26.1 µM | EC50 [15]: 19.3 µM | EC50 [16]: 29.7 µM | EC50 [17]: 43.3 µM | EC50 [18]: 7.8 µM | EC50 [19]: 17.5 µM | EC50 [20]: 13.2 µM | EC50 [21]: 21.4 µM | EC50 [22]: 13.2 µM | EC50 [23]: 16.6 µM | EC50 [24]: 19 µM | EC50 [25]: 32.6 µM | EC50 [26]: 14.3 µM | EC50 ([27]; BJ-Tert, N, Tert-Immortalized fibroblast, 5 days, resazurin, read-out: EC50): 33.7 µM | EC50 ([27]; hTERT-immortalized BJ fibroblasts, five days, Figure 3C, read-out: EC50 (viability)): 29.5 ± 4.7 µM | EC50 [28]: 2.9 µM | EC50 [29]: 14.5 µM | EC50 [30]: 4.8 µM | EC50 [31]: 19.6 µM | EC50 [32]: 18.3 µM | EC50 [33]: 31.1 µM | EC50 [34]: 2.3 µM | EC50 [35]: 10.5 µM | EC50 [36]: 27.7 µM

O=C(Nc1ccc(Cl)c(Cl)c1)N1CCC(n2c(=O)[nH]c3c(-c4ccc(CO)nc4)cccc32)CC1 [TH5796, N-(3,4-Dichlorophenyl)-4-[4-[6-(hydroxymethyl)-3-pyridyl]-2-oxo-3H-benzimidazol-1-yl]piperidine-1-carbox amide]
EC50 ([1]; Homo sapiens, 120 h): 10.5 µM | EC50 ([2]; Homo sapiens, 120 h): 21.2 µM | EC50 ([3]; Homo sapiens, 120 h): 20.9 µM | EC50 ([4]; Homo sapiens, 120 h): 19.4 µM | EC50 ([5]; Homo sapiens, NCI-H460, 120 h): 14.4 µM | EC50 ([6]; Homo sapiens, 120 h): 20.8 µM | EC50 ([7]; Homo sapiens, 120 h): 16.7 µM | EC50 ([8]; Homo sapiens, 120 h): 10.2 µM | EC50 ([9]; Homo sapiens, 120 h): 14.4 µM | EC50 ([10]; Homo sapiens, 120 h): 22.6 µM | EC50 ([11]; Homo sapiens, 120 h): 20.3 µM | EC50 ([12]; Homo sapiens, 120 h): 16.1 µM | EC50 ([13]; Homo sapiens, 120 h): 12.6 µM | EC50 ([14]; Homo sapiens, 120 h): 20.6 µM | EC50 ([15]; Homo sapiens, 120 h): 15.8 µM | EC50 ([16]; Homo sapiens, 120 h): 15.2 µM | EC50 ([17]; Homo sapiens, CCD-841, 120 h): 39.7 µM | EC50 ([18]; Homo sapiens, 120 h): 6.5 µM | EC50 ([19]; Homo sapiens, HCT-116, 120 h): 14.7 µM | EC50 ([20]; Homo sapiens, MOLT-4, 120 h): 12.6 µM | EC50 ([21]; Homo sapiens, SAOS-2, 120 h): 16.2 µM | EC50 ([22]; Homo sapiens, DU-145, 120 h): 10.7 µM | EC50 ([23]; Homo sapiens, 120 h): 10.1 µM | EC50 ([24]; Homo sapiens, 120 h): 20.5 µM | EC50 ([25]; Homo sapiens, PC-3, 120 h): 19.3 µM | EC50 ([26]; Homo sapiens, KG-1a, 120 h): 18 µM | EC50 [27, 37]: 24.4 µM | EC50 ([28]; Homo sapiens, UO-31, 120 h): 7.1 µM | EC50 ([29]; Homo sapiens, 120 h): 18.5 µM | EC50 ([30]; Homo sapiens, 120 h): 15.1 µM | EC50 ([31]; Homo sapiens, 120 h): 14.2 µM | EC50 ([32]; Homo sapiens, 120 h): 14.7 µM | EC50 ([33]; Homo sapiens, 120 h): 33.5 µM | EC50 ([34]; Homo sapiens, 120 h): 8.5 µM | EC50 ([35]; Homo sapiens, 120 h): 13.8 µM | EC50 ([36]; Homo sapiens, 120 h): 40.7 µM

Cc1cc(NC(=O)N2CCC(n3c(=O)[nH]c4c(Br)cccc43)CC2)ccc1I [TH6943, 4-(4-Bromo-2-oxo-3H-benzimidazol-1-yl)-N-(4-iodo-3-methyl-phenyl)piperidine-1-carboxamide]
EC50 ([1]; Homo sapiens, 120 h): 7.9 µM | EC50 ([2]; Homo sapiens, 120 h): 35.1 µM | EC50 ([3]; Homo sapiens, 120 h): 47.5 µM | EC50 ([4]; Homo sapiens, 120 h): 27 µM | EC50 ([5]; Homo sapiens, NCI-H460, 120 h): 16.5 µM | EC50 ([6]; Homo sapiens, 120 h): 47.1 µM | EC50 ([7]; Homo sapiens, 120 h): 20.3 µM | EC50 ([8]; Homo sapiens, 120 h): 18.4 µM | EC50 ([9]; Homo sapiens, 120 h): 23.9 µM | EC50 ([10]; Homo sapiens, 120 h): 22 µM | EC50 ([11]; Homo sapiens, 120 h): 29.8 µM | EC50 ([12]; Homo sapiens, 120 h): 25.1 µM | EC50 ([13]; Homo sapiens, 120 h): 14.8 µM | EC50 ([14]; Homo sapiens, 120 h): 29.4 µM | EC50 ([15]; Homo sapiens, 120 h): 34.9 µM | EC50 ([16]; Homo sapiens, 120 h): 33 µM | EC50 ([17]; Homo sapiens, CCD-841, 120 h): 54.2 µM | EC50 ([18]; Homo sapiens, 120 h): 9.6 µM | EC50 ([19]; Homo sapiens, HCT-116, 120 h): 28.6 µM | EC50 ([20]; Homo sapiens, MOLT-4, 120 h): 17.4 µM | EC50 ([21]; Homo sapiens, SAOS-2, 120 h): 19.8 µM | EC50 ([22]; Homo sapiens, DU-145, 120 h): 3.1 µM | EC50 ([23]; Homo sapiens, 120 h): 12.1 µM | EC50 ([24]; Homo sapiens, 120 h): 23.4 µM | EC50 ([25]; Homo sapiens, PC-3, 120 h): 28.7 µM | EC50 ([26]; Homo sapiens, KG-1a, 120 h): 18.8 µM | EC50 [27, 37]: 30.5 µM | EC50 ([28]; Homo sapiens, UO-31, 120 h): 3.2 µM | EC50 ([29]; Homo sapiens, 120 h): 16.7 µM | EC50 ([30]; Homo sapiens, 120 h): 14.1 µM | EC50 ([31]; Homo sapiens, 120 h): 11.7 µM | EC50 ([32]; Homo sapiens, 120 h): 17.3 µM | EC50 ([33]; Homo sapiens, 120 h): 40 µM | EC50 ([34]; Homo sapiens, 120 h): 2.8 µM | EC50 ([35]; Homo sapiens, 120 h): 15.2 µM | EC50 ([36]; Homo sapiens, 120 h): 32.3 µM
